# Reference: ChEMBL document CHEMBL5120771, “Synthesis, equilibrium, and biological study of a C-7 glucose boronic acid derivative as a potential candidate for boron neutron capture therapy” (Bioorg Med Chem, 2022)
# Columns and labels:
# Fibroblast [1] = experiment: Cytotoxicity against human fibroblasts assessed as reduction in cell viability at 0.01 to 3 mM measured after 72 hrs by MTT assay relative to control; format: toxicity, cell-based; conditions: 3000 µM, dose 0.01-3 mM
# Fibroblast [2] = experiment: Cytotoxicity against human fibroblasts assessed as reduction in cell viability at 0.01 to 3 mM measured after 24 hrs by MTT assay; format: toxicity, cell-based; conditions: 3000 µM, dose 0.01-3 mM
# [3] = Drug uptake in human fibroblasts assessed as boron accumulation at 1 mM measured after 24 hrs per mg of cell pellet by ICP-MS analysis (reference value: 0.30 +/- 0.09 ng/mg); format: ADME, cell-based; conditions: fibroblast, 1000 µM
# D54 cell line = experiment: Cytotoxicity against human D54 cells assessed as cell killing at 1 mM measured after 72 hrs by MTT assay; format: functional
# [4] = Drug uptake in human D54 cells assessed as boron accumulation at 1 mM measured after 2 hrs per mg of cell pellet by ICP-MS analysis (reference value: 0.15 +/- 0.19 ng/mg); format: ADME, cell-based; conditions: d54, 2 h, 1000 µM
# [5] = Drug uptake in human D54 cells assessed as boron accumulation at 1 mM measured after 24 hrs per mg of cell pellet by ICP-MS analysis (reference value: 0.15 +/- 0.19 ng/mg); format: ADME, cell-based; conditions: d54, 24 h, 1000 µM
structure (smiles),measurement,setting,value
N[C@@H](Cc1ccc(B(O)O)cc1)C(=O)O,Activity,Fibroblast [1],-19%
OB1CC[C@H]2OC(O)[C@H](O)[C@@H](O)[C@@H]2O1 (some centres not stated),Activity,Fibroblast [2],Non-Toxic
same,Activity,Fibroblast [1],-10%
same,Drug uptake,[3],0.85 ng/mg
same,Activity,D54 cell line,15%
same,Drug uptake,[4],3 ng/mg
same,Drug uptake,[5],6 ng/mg
